Experimental findings from US9499493B2, “2,4-pyrimidinediamine compounds and their uses” (Rigel Pharmaceuticals, Inc., priority 2002, dated 2016) are described below.

For test [1], the system named is cultured human mast cells (CHMC). Put plainly: CHMC low cell density ionomycin activation: tryptase assay. Format: cell-based.
The test system is the same in test [2]. Put plainly: CHMC low cell density IgE activation: tryptase assay. Particulars: anti-IgE. Format: cell-based. An outline of the steps: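 Read-out: tryptase released into supernatant, measured by substrate turnover over 30 min at RT. Low-density CHMC (1000-1500 cells/well, per donor degranulation activity) in MT buffer, 1 hr at 37° C, then anti-IgE challenge 30 min at 37° C.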

Structures are written as SMILES. Structures can show the parent of a compound that is named as a salt.

For orientation: IC50 means the concentration that inhibits the measured activity by half. A high value points to weaker potency.

`Cn1nnnc1COc1ccc(Nc2ncc(F)c(Nc3ccc(OCc4nnnn4C)cc3)n2)cc1` [R945048, N2,N4-Bis[4-(1-methyl-1,2,3,4-tetrazol-5-yl)methyleneoxyphenyl]-5-fluoro-2,4-pyrimidinediamine]: the IC50 was over 10000 nM in test [1] and 760 nM in test [2].
As to `COC(=O)COc1ccc(Nc2ncc(F)c(Nc3ccc(OCC(N)=O)cc3)n2)cc1` [R945052, N4-(4-Aminocarbonylmethyleneoxyphenyl)-5-fluoro-N2-(4-methoxycarbonylmethyleneoxyphenyl)-2,4-pyrimidinediamine], the 50% inhibitory concentration (IC50) in test [1] is 2480 nM; in test [2], 425 nM.
The matching figures for `COC(=O)COc1ccc(Nc2ncc(F)c(Nc3ccc(OCC#N)cc3)n2)cc1` [R945053, N4-(4-Cyanomethyleneoxyphenyl)5-fluoro-N2-(4-methoxycarbonylmethyleneoxyphenyl)-2,4-pyrimidinediamine]: 1480 nM and 118 nM.
The like results for `COC(=O)COc1ccc(Nc2nc(Nc3ccc(OCC(N)=O)cc3)ncc2F)cc1` [R945060, N2-(4-Aminocarbonylmethyleneoxyphenyl)-5-fluoro-N4-(4-methoxycarbonylmethyleneoxyphenyl)-2,4-pyrimidinediamine] were, in that order, over 10000 nM and 938 nM.
Regarding `COC(=O)COc1ccc(Nc2nc(Nc3ccc(OCC#N)cc3)ncc2F)cc1` [R945062, N2-(4-Cyanomethyleneoxyphenyl)-5-fluoro-N4-(4-methoxycarbonylmethyleneoxyphenyl)-2,4-pyrimidinediamine], the figures for the half-maximal inhibitory concentration (IC50) in test [1] and in test [2] were over 10000 nM and 625 nM, respectively.
The like results for `NC(=O)COc1ccc(Nc2nc(Nc3cccc(O)c3)ncc2F)cc1` [R945063, N4-[4-(Aminocarbonylmethyleneoxy)phenyl]-5-fluoro-N2-(3-hydroxyphenyl)-2,4-pyrimidinediamine] were, in that order, over 10000 nM and 1550 nM.
Turning to `NC(=O)COc1ccc(Nc2ncc(F)c(Nc3cccc(O)c3)n2)cc1` [R945064, N2-[4-(Aminocarbonylmethyleneoxy)phenyl]-5-fluoro-N4-(3-hydroxyphenyl)-2,4-pyrimidinediamine], the values for the IC50 in test [1] and in test [2] were over 10000 nM and 530 nM, respectively.
As for `CON=C(N)COc1ccc(Nc2ncc(F)c(Nc3ccc(OCC(N)=NOC)cc3)n2)cc1` [R945096, N2,N4-Bis[4-[2-methoxyimino(amino)ethyleneoxy]phenyl]-5-fluoro-2,4-pyrimidinediamine], the results for the IC50 in test [1] and in test [2] were over 10000 nM and 1750 nM, respectively.
The matching figures for `N#CCOc1ccc(Nc2nc(Nc3ccc(OCC(=O)O)cc3)ncc2F)cc1` [R945097, N2-(4-Carboxymethyleneoxyphenyl)-N4-(4-cyanomethyleneoxyphenyl)-5-fluoro-2,4-pyrimidinediamine]: over 10000 nM and 10000 nM.
As for `COC(=O)COc1cccc(Nc2ncc(F)c(Nc3cccc(O)c3)n2)c1` [R945118, 5-Fluoro-N4-(3-hydroxyphenyl)-N2-(3-methoxycarbonylmethyleneoxyphenyl)-2,4-pyrimidinediamine], the 50% inhibitory concentration (IC50) in test [1] was over 10000 nM; in test [2], 668 nM.
The like results for `COC(=O)COc1cccc(Nc2ncc(F)c(Nc3ccc4c(c3)OCCO4)n2)c1` [R945124, N4-(3,4-Ethylenedioxyphenyl)-5-fluoro-N2-(3-methoxycarbonylmethyleneoxyphenyl)-2,4-pyrimidinediamine] were, in that order, 7850 nM and 690 nM.
For `COC(=O)COc1cccc(Nc2ncc(F)c(Nc3ccc(OC(C)C)cc3)n2)c1` [R945125, 5-Fluoro-N4-(4-isopropoxyphenyl)-N2-(3-methoxycarbonylmethyleneoxyphenyl)-2,4-pyrimidinediamine], the IC50 was over 10000 nM in test [1] and 896 nM in test [2].
The matching figures for `O=C(O)COc1cccc(Nc2ncc(F)c(Nc3cccc(O)c3)n2)c1` [R945126, N2-(3-Carboxymethyleneoxyphenyl)-5-fluoro-N4-(3-hydroxyphenyl)-2,4-pyrimidinediamine]: over 10000 nM and over 10000 nM.
The matching figures for `Cc1nc(COc2cccc(Nc3ncc(F)c(Nc4cccc(O)c4)n3)c2)no1` [R945127, 5-Fluoro-N4-(3-hydroxyphenyl)-N2-[3-(5-methyl-1,2,4-oxadiazol-3-yl)methyleneoxyphenyl]-2,4-pyrimidinediamine]: 8960 nM and 704 nM.
The like results for `Cc1nc(COc2cccc(Nc3ncc(F)c(Nc4ccc(OC(C)C)cc4)n3)c2)no1` [R945129, 5-Fluoro-N4-(4-isopropoxyphenyl)-N2-[3-(5-methyl-1,2,4-oxadiazol-3-yl)methyleneoxyphenyl]-2,4-pyrimidinediamine] were, in that order, over 10000 nM and 1000 nM.
Take `Cc1noc(COc2cccc(Nc3nc(Nc4cccc(O)c4)ncc3F)c2)n1` [R945130, 5-Fluoro-N2-(3-hydroxyphenyl)-N4-[3-(3-methyl-1,2,4-oxadiazol-5-yl)methyleneoxyphenyl]-2,4-pyrimidinediamine]: the figures for the IC50 in test [1] and in test [2] were over 10000 nM and 1870 nM, respectively.
The like results for `COC(=O)c1cc2cc(Nc3nc(Nc4cccc(OCc5noc(C)n5)c4)ncc3F)ccc2o1` [R945131, 5-Fluoro-N4-(2-methoxycarbonylbenzofuran-5-yl)-N2-[3-(5-methyl-1,2,4-oxadiazol-3-yl)methyleneoxyphenyl]-2,4-pyrimidinediamine] were, in that order, over 10000 nM and 770 nM.
The matching figures for `Cc1nc(COc2cccc(Nc3nc(Nc4cccc(O)c4)ncc3F)c2)no1` [R945132, 5-Fluoro-N2-(3-hydroxyphenyl)-N4-[3-(5-methyl-1,2,4-oxadiazol-3-yl)methyleneoxyphenyl]-2,4-pyrimidinediamine]: 8770 nM and 571 nM.
The matching figures for `Cc1nc(COc2cccc(Nc3nc(Nc4ccc(OCC(N)=O)cc4)ncc3F)c2)no1` [R945133, N2-[4-(Aminocarbonylmethoxy)phenyl]-5-fluoro-N4-[3-(5-methyl-1,2,4-oxadiazol-3-yl)methyleneoxyphenyl]-2,4-pyrimidinediamine]: over 10000 nM and 1060 nM.
As to `Cc1nc(COc2cccc(Nc3ncc(F)c(Nc4ccc5oc(C(=O)O)cc5c4)n3)c2)no1` [R945134, N4-(2-Carboxybenzofuran-5-yl)-5-fluoro-N2-[3-(5-methyl-1,2,4-oxadiazol-3-yl)methyleneoxyphenyl]-2,4-pyrimidinediamine], the half-maximal inhibitory concentration (IC50) in test [1] and in test [2] was over 10000 nM throughout.
As to `Cc1nc(COc2cccc(Nc3ncc(F)c(Nc4ccc5oc(C(N)=O)cc5c4)n3)c2)no1` [R945135, N4-(2-Aminocarbonylbenzofuran-5-yl)-5-fluoro-N2-[3-(5-methyl-1,2,4-oxadiazol-3-yl)methyleneoxyphenyl]-2,4-pyrimidinediamine], the half-inhibitory concentration (IC50) stood at 8240 nM in test [1] and 986 nM in test [2].
The like results for `Cc1nc(COc2cccc(Nc3nc(Nc4ccc5c(c4)OCCO5)ncc3F)c2)no1` [R945137, N2-(3,4-Ethylenedioxyphenyl)-5-fluoro-N4-[3-(5-methyl-1,2,4-oxadiazol-3-yl)methyleneoxyphenyl]-2,4-pyrimidinediamine] were, in that order, over 10000 nM and 1650 nM.
With `Cc1nc(COc2cccc(Nc3nc(Nc4ccc(OC(C)C)cc4)ncc3F)c2)no1` [R945138, 5-Fluoro-N2-(4-isopropoxyphenyl)-N4-[3-(5-methyl-1,2,4-oxadiazol-3-yl)methyleneoxyphenyl]-2,4-pyrimidinediamine], the 50% inhibitory concentration (IC50) was 6730 nM in test [1] and 1060 nM in test [2].
The like results for `COC(=O)COc1cccc(Nc2ncc(F)c(Nc3cc(C)c(O)c(C)c3)n2)c1` [R945139, N4-(3,5-Dimethyl-4-hydroxyphenyl)-5-fluoro-N2-(3-methoxycarbonylmethyleneoxyphenyl)-2,4-pyrimidinediamine] were, in that order, over 10000 nM and 1020 nM.
The matching figures for `COC(=O)COc1cccc(Nc2ncc(F)c(Nc3cc(C)c(O)c(Cl)c3)n2)c1` [R945148, N4-(3-Chloro-4-hydroxy-5-methylphenyl)-5-fluoro-N2-(3-methoxycarbonylmethyleneoxyphenyl)-2,4-pyrimidinediamine]: over 10000 nM and 307 nM.
The like results for `Cc1cc(Nc2nc(Nc3cccc(OCC(=O)N4CCNCC4)c3)ncc2F)cc(Cl)c1O` [R945149, N4-(3-Chloro-4-hydroxy-5-methylphenyl)-5-fluoro-N2-[3-(N-piperazino)carbonylmethyleneoxyphenyl]-2,4-pyrimidinediamine] were, in that order, over 10000 nM and 391 nM.
As to `COC(=O)COc1cccc(Nc2ncc(F)c(Nc3cc(C)c(OC)c(C)c3)n2)c1` [R945153, N4-(3,5-Dimethyl-4-methoxyphenyl)-5-fluoro-N2-(3-methoxycarbonylmethyleneoxyphenyl)-2,4-pyrimidinediamine], the half-inhibitory concentration (IC50) was determined as 6560 nM in test [1] and 688 nM in test [2].
As for `COc1c(C)cc(Nc2nc(Nc3cccc(OCC(=O)N4CCNCC4)c3)ncc2F)cc1C` [R945156, N4-(3,5-Dimethyl-4-methoxyphenyl)-5-fluoro-N2-[3-(N-piperazino)carbonylmethyleneoxyphenyl]-2,4-pyrimidinediamine], the IC50 in test [1] is over 10000 nM; in test [2] it was 787 nM.
The like results for `COc1c(C)cc(Nc2nc(Nc3cccc(OCCN4CCNCC4)c3)ncc2F)cc1C` [R945157, N4-(3,5-Dimethyl-4-methoxyphenyl)-5-fluoro-N2-[3-[2-(N-piperazino)ethoxy]phenyl]-2,4-pyrimidinediamine Dihydrochloride Salt] were, in that order, over 10000 nM and 1480 nM.
The matching figures for `CON=C(N)COc1ccc(Nc2ncc(F)c(Nc3cccc(O)c3)n2)cc1` [R945167, 5-Fluoro-N4-(3-hydroxyphenyl)-N2-[4-(2-methoxyimino(amino)ethyleneoxy)phenyl]-2,4-pyrimidinediamine]: over 10000 nM and 761 nM.
